PMC8700061, “Fragment-Sized and Bidentate (Immuno)Proteasome Inhibitors Derived from Cysteine and Threonine Targeting Warheads” (Cells, 2021)
Marks after values point to notes of the source that are not given here.

Key:
human iCP (β5i) = biological target: T1, human iCP (β5i) (Homo sapiens, UniProt P20618+P28062); experiment: Screening of heterocyclic electrophilic compounds at 500 µM (β5i); assay type: biochemical; conditions: 30 min incubation
T1 construct: purchased Boston Biochem, Inc., Cambridge, MA, USA
Experimental: Screening of heterocyclic electrophilic compounds was performed at concentration of 500 µM in assay buffer (0.01% SDS, 50 mM Tris-HCl, 0.5 mM EDTA, pH 7.4). To 50 µL of each compound in buffer, 25 µL of 0.8 nM human iCP (Boston Biochem, Inc., Cambridge, MA, USA) was added. After 30 min incubation at 37 °C, the reaction was started by adding of 25 µL of […] Suc-LLVY-AMC (Bachem, Bubendorf, Switzerland), final concentration 25 µM). The reaction progress was recorded on BioTek Synergy HT microplate reader by monitoring fluorescence at 460 nm (λex = 360 nm) for 90 min at 37 °C. The initial linear ranges were used to calculate the velocity and determine the residual activity.

β5 subunit of human cCP = biological target: T2, β5 subunit of human cCP (Homo sapiens, UniProt P20618+P28074); experiment: Inhibition of β5 activity (RA, IC50), Suc-LLVY-AMC; assay type: biochemical
T2 construct: purchased Boston Biochem, Inc., Cambridge, MA, USA

β5i subunit of human iCP [1] = biological target: T3, β5i subunit of human iCP (Homo sapiens, UniProt P20618+P28062); experiment: Inhibition of β5i activity (RA at 10 µM, IC50, IC50 shift), Suc-LLVY-AMC; assay type: biochemical; conditions: for RA (%) at 10 µM, β5i: 10 µM compound, 30 min pre-incubation, SDS activator; for Group efficiency (GE): ΔpIC50/ΔNheavy with compound 1 as reference
T3 construct: purchased Boston Biochem, Inc., Cambridge, MA, USA
Experimental: Residual activity measurements were performed at 10 μM final concentrations in the assay buffer (0.01% SDS, 50 mM Tris-HCl, 0.5 mM EDTA, pH 7.4). Stock solutions of the compounds were prepared in DMSO. To 50 μL of each compound in buffer, 25 μL of 0.8 nM human iCP or human cCP (both from Boston Biochem, Inc., Cambridge, MA, USA) were added. After incubation at 37 °C for 30 min, the reaction was started by adding of 25 μL of 100 μM relevant fluorogenic substrate: acetyl-Nle-Pro-Nle-Asp-AMC (Ac-nLPnLD-AMC, (Bachem, Bubendorf, Switzerland)) for β1, acetyl-Pro-Ala-Leu-7-amino-4-methylcoumarin (Ac-PAL-AMC, (Boston Biochem, Inc., Cambridge, MA, USA)) for β1i, t-butyloxycarbonyl-Leu-Arg-Arg-7-amino-4-methylcoumarin (Boc-LRR-AMC, (Bachem, Bubendorf, Switzerland)) for β2 and β2i, succinyl-Leu-Leu-Val-Tyr-7-amino-4-methylcoumarin (Suc-LLVY-AMC) (Bachem, Bubendorf, Switzerland) for β5 and β5i. Reaction progress was recorded on BioTek Synergy HT microplate reader by monitoring fluorescence at 460 nm (λex = 360 nm) for 90 min at 37 °C. The initial linear ranges were used to calculate velocity and determine residual activity. In the case of evaluation of β1, βi, β2, and β2i activities, the assay buffer was modified by replacing SDS with the proteasomal activator PA28α (Boston Biochem, Inc., Cambridge, MA, USA).
Final assay mixtures contained 0.2 nM human iCP or 0.2 nM human cCP in assay buffer (0.01% SDS (or PA28α in cases of β1, β1i subunits), 50 mM Tris-HCl, 0.5 mM EDTA, pH 7.4). Inhibitors were dissolved in DMSO and added to the black 96-well plates for at least eight different concentrations (the final concentration of DMSO was not more than 1%). […] Fluorescence was monitored at 460 nm (λex = 360 nm) for 90 min at 37 °C. The progress of the reactions was recorded and the initial linear ranges were used to calculate the velocity. IC50 values were calculated using GraphPadPrism (GraphPad Software, San Diego, CA, USA) and are means from at least three independent determinations.

[2] = HPLC-based stability assay in PBS; assay type: physicochemical; conditions: PBS pH 7.4
Experimental: (§1) GSH reactivity assay was performed as described by Petri et al.; 500 μM solution of compound (PBS buffer pH 7.4, 10% MeCN, 250 μL) with 200 μM solution of indoprofen as internal standard were added to 10 mM GSH solution (dissolved in PBS buffer, 250 μL) in a 1:1 ratio. The final concentration was 250 μM compound, 100 μM indoprofen, 5 mM GSH and 5% MeCN (500 μL). The final mixture was analyzed by HPLC after 0, 1, 2, 4, 8, 12, 24, 48, and 72 h. The degradation kinetics were also studied using the method described in [24], except that pure PBS buffer was used instead of GSH solution. In this experiment, the final concentration of the mixture was 250 μM fragment, 100 μM indoprofen and 5% MeCN. The area under the curve (AUC) values were determined by integrating the HPLC spectra and then corrected with the internal standard.

[3] = HPLC-based GSH reactivity assay; assay type: physicochemical; conditions: 250 µM compound, 5 mM GSH, PBS pH 7.4
Experimental: as §1, with “The final concentration was 250 μM compound, 100 μM indoprofen, 5 mM GSH and 5% MeCN (500 μL).” left out, “In this experiment, the final concentration of the mixture was 250 μM fragment, 100 μM indoprofen and 5% MeCN.” left out

[4] = UV-Vis-based stability assay in buffer; assay type: physicochemical; conditions: after 1 h, assay buffer pH 7.4, 37 °C, 50 µM
Experimental: The aqueous stability of all compounds was determined spectrophotometrically by following the changes in the absorption spectra of the compounds. The buffer solution (50 mM Tris-HCl, 0.5 mM EDTA, pH 7.4) was pre-incubated at 37 °C. Aliquots of the compounds studied (1 mM in DMSO) were transferred to a 96-well flat-bottom UV-transparent microplate (Corning, CLS3635, Corning Inc, Corning, NY, USA) containing the buffer solution to obtain a 50 μM solution containing 5% DMSO (final volume, 300 μL). The plate was incubated without lid at 37 °C in a plate reader (Synergy H4, BioTek Instruments, Inc., Santa Clara, CA, USA) and the absorbance spectrum (244–400 nm) was acquired in sweep mode after 0, 15, 30, 60, 120, 180, and 240 min using a discontinuous kinetic procedure in Gen5 software (BioTek Instruments, Inc., Santa Clara, CA, USA). The time required to read the entire plate was 3 min. To determine the baseline, the compound solution was replaced with pure DMSO and subtracted from each reading. Compounds with an absorbance maximum of less than 0.20 AU were not evaluated using these assays due to the high experimental error. For other compounds, the relative absorbance difference between the first time point and 60 min at the most responsive wavelength was calculated. If the relative absorbance difference for the compound in the buffer was below 0.1, between 0.1–0.2, and above 0.2, the compound was classified as stable, intermediate, and unstable, respectively.

β5i subunit of human iCP [5] = biological target: T3, β5i subunit of human iCP; design: method as in PMID 33894528; conditions: limited stability of compounds after 1 h in assay buffer; read-out: IC50 (µM) against the β5i subunit of human iCP; cited from earlier work
GSH = experiment: HPLC-based GSH reactivity assay; assay type: physicochemical; conditions: 5 mM glutathione (GSH) in PBS buffer; 250 µM compound, 5 mM GSH, PBS pH 7.4; read-out: Reactivity with GSH (HPLC-based assay), t1/2
Experimental: as §1, with “The final concentration was 250 μM compound, 100 μM indoprofen, 5 mM GSH and 5% MeCN (500 μL).” left out, “In this experiment, the final concentration of the mixture was 250 μM fragment, 100 μM indoprofen and 5% MeCN.” left out

Row | Structure (SMILES) | Stability in Buffer (HPLC-based assay) [2] | Group efficiency (GE) (β5i subunit of human iCP [1]) | IC50 (β5i subunit of human iCP [5]) | further results
1 | C=Cc1nccs1 [XXI, 2-vinylthiazole] |  |  |  | RA at 500 µM [%] (β5i) (human iCP (β5i)): 5 ± 3%
2 | CC(C)C[C@H](NC(=O)[C@H](CCc1ccccc1)NC(=O)CN1CCOCC1)C(=O)N[C@@H](Cc1ccccc1)C(=O)N[C@@H](CC(C)C)C(=O)[C@@]1(C)CO1 [carfilzomib] |  |  |  | β5 RA at 10 nM (control) (β5 subunit of human cCP): 25 ± 1%
3 | Cc1ccc2nc(C#N)oc2c1 [Compound 5] | low absorbance ^c/stable ^d |  |  | RA (%) at 10 µM, β5i (β5i subunit of human iCP [1]): 81 ± 4%; Reactivity with GSH (HPLC-based assay), t1/2 [3]: < 3 min
4 | N#Cc1nc2ccc(N)cc2o1 [Compound 22] | stable ^c,d |  |  | Stability in Buffer (UV-Vis-based assay) [4]: stable ^c,d (relative absorbance difference for the compound in the buffer was below 0.1); Reactivity with GSH (HPLC-based assay), t1/2 [3]: < 3 min
5 | N#Cc1nc2cccc(Cl)c2o1 [Compound 4] |  | 0.92 | 10 ± 4.6 µM | 
6 | N#Cc1nc2ccccc2o1 [Compound 1, benzoxazole-2-carbonitrile] |  |  | 83 ± 6 µM | 
7 | COc1cccc2nc(C#N)oc12 [Compound 9] | stable ^c,d | 0.61 |  | RA (%) at 10 µM, β5i (β5i subunit of human iCP [1]): 20 ± 6% ^f; RA (%) at 10 µM, β5i (β5i subunit of human iCP [1]; listed as 7-OMe): 20%; Stability in Buffer (UV-Vis-based assay) [4]: stable ^c,d (relative absorbance difference for the compound in the buffer was below 0.1); half-life at 250 µM (GSH): < 3 min
8 | N#Cc1nc2cc(Cl)ccc2o1 [Compound 2] |  | 0.09 | 67 ± 11 µM | 
9 | N#Cc1nc2ccc(Cl)cc2o1 [Compound 3] |  | 0.96 | 9.1 ± 4.5 µM | 
